We go through eight molecules from patent US11744859B2, “Compositions and methods for parenteral administration of therapeutic agents” (EpicentRx, Inc., priority 2017, dated 2023).

For data set [1] the following is noted: in vivo; cited from earlier work.
The test system of data set [2] is human lung cancer cells A549. Description: xenografted A549 lung tumor in mice, tumor volume. The data set is classed as in vivo. As to conditions: 50 mg/kg, twice in one week. How it is done:
FIG. 1 depicts activity of control, carboplatin (Carbo, 50 mg/kg), and whole blood mixed with carboplatin (Blood-mix-Carbo, either 50 mg/kg or 100 mg/kg) in treating xenografted A549 lung tumor, as measured by tumor volume after each treatment.
In this example, human lung cancer cells A549 were xenografted to mice.

For data set [3], the system named is human colorectal HT-29 cancer cells. The conditions noted are these: 5 mg/kg, twice a week for three weeks. The source says: In this example, human colorectal HT-29 cancer cells will be xenografted to mice.
Data set [4] has as its system sepsis model mice (CLP). Description: CLP sepsis model mice: survival and live bacterial count in blood. The data set is classed as in vivo, BALB/c mice. The conditions noted are these: 24 hour blood samples from septic mice; 25 mg/kg.
Experimental: Sepsis model: twenty BALB/c mice (Jackson Labs; 6-8 weeks) were made septic by CLP. Briefly, mice were anesthetized isoflurane (5% induction and 2% maintenance), and subjected to laparotomy. The cecum was exteriorized and ligated distal to the ileocecal valve without causing intestinal obstruction. The cecum was then punctured twice with either a 21 gauge needle, and stool was gently extruded. Lastly, the abdomen was closed 1 mL of saline was injected.
For data set [5], the system named is human HT-29 colorectal cancer cells. As to the kind of experiment: xenografted HT-29 colorectal tumor in mice, tumor volume. The data set is classed as in vivo. The conditions noted are these: 12 mg/kg, one time. The protocol:
FIG. 5 depicts activity of control, oxaliplatin (L-OHP, 12 mg/kg), and whole blood mixed with oxaliplatin (Blood-mix-L-OHP, either 12 mg/kg or 24 mg/kg) in treating xenografted HT-29 colorectal tumor, as measured by tumor volume over time (0-40 days) after each treatment.

The subject of data set [6] is human breast carcinoma cells MCF7. As to the kind of experiment: orthotopically implanted MCF7 human breast carcinoma in mice, tumor volume. The data set is classed as in vivo, athymic mice (nu/nu). The conditions noted are these: either 10 mg/kg or 30 mg/kg, twice per week. How it is done: (§1) 6-week-old-female athymic mice (nu/nu) were implanted orthotopically with 1×10^7 cells/mL human breast carcinoma cells MCF7 or MCF/Taxol (Taxol resistance line) into their mammary fat pad. […] The treatments started when tumors were 100 mm^3. The paclitaxel blood mixes were prepared by incubating whole blood with paclitaxel and an anticoagulant (CPD) for 30 minutes.

For data set [7], the system named is MCF7/Taxol (Taxol resistance line). Description: orthotopically implanted MCF7/Taxol human breast carcinoma in mice, tumor volume. The data set is classed as in vivo, athymic mice (nu/nu). As to conditions: either 10 mg/kg or 30 mg/kg, twice per week. The protocol:
as §1

On to `O=P1(N(CCCl)CCCl)NCCCO1` (stereo not drawn) [Cyclophosphamide], for which the “elimination time of the drug” value in data set [1] is 3 to 12 h. `CC[C@@]1(O)C(=O)OCc2c1cc1n(c2=O)Cc2cc3c(CN(C)C)c(O)ccc3nc2-1` [Topotecan]: the “elimination time of the drug” value in data set [1] was 2 to 3 h. Regarding `N.N.O=C([O-])C1(C(=O)[O-])CCC1.[Pt+2]` [carboplatin], in data set [2], the “tumor volume compared to control” value was “tumor volume was reduced”.

Consider `COc1cccc2c1C(=O)c1c(O)c3c(c(O)c1C2=O)C[C@@](O)(C(=O)CO)C[C@@H]3O[C@H]1C[C@H](N)[C@H](O)[C@H](C)O1` [doxorubicin], for which the “tumor volume compared to control” value in data set [3] is reported as “tumor volume is reduced”. On to `O=P1(NCCCl)OCCCN1CCCl` (stereo not drawn) [ifosfamide], for which, in data set [1], the “elimination time of the drug” value is 7 to 15 h.

In data set [4], `C[C@@H](O)[C@H]1C(=O)N2C(C(=O)O)=C(SCCN=CN)C[C@H]12` [imipenem] returned a live bacterial count of 7.4±0.45 log CFU/mL. Take `O=C1[O][Pt]2([NH][C@@H]3CCCC[C@H]3[NH]2)[O]C1=O` [oxaliplatin]: the “tumor volume compared to control” value in data set [5] is listed as “tumor volume was reduced”. As to `CC(=O)O[C@H]1C(=O)[C@@]2(C)[C@H]([C@H](OC(=O)c3ccccc3)[C@]3(O)C[C@H](OC(=O)[C@H](O)[C@@H](NC(=O)c4ccccc4)c4ccccc4)C(C)=C1C3(C)C)[C@]1(OC(C)=O)CO[C@@H]1C[C@@H]2O` [paclitaxel], the “tumor volume compared to control” value in data set [6] and in data set [7] was “tumor volume was reduced” in each case.
